Data published in patent US20220202705A1, “THERMORESPONSIVE HYDROGEL CONTAINING POLYMER MICROPARTICLES FOR NONINVASIVE OCULAR BIOLOGIC DELIVERY” (University of Pittsburgh - Of the Commonwealth System of …, priority 2016, published 2022).
Blank lines part the entries; values can stand above or below the compound they belong to.

Columns and labels:
[1] = 2 drops per day of 0.2% BT, 1-7% absorption, 0.66 mg brimonidine per mg BT
Procedure: Theoretical maximum and minimum amounts of BT absorption were also calculated as a basis for comparison for in vitro release from the BTMPs. This range was calculated by assuming a 50 μl drop and 2 drops administered per day at a rate of either 1% (minimum) or 7% (maximum) absorption (Ghate and Edelhauser, 2008). As the in vitro release methods measure base brimonidine and not the tartrate salt, a necessary conversion factor of 0.66 mg brimonidine for every 1 mg BT was incorporated in these calculations (Acheampong et al., 2002).

[2] = in vivo; cited from earlier work
[3] = In vitro NGF release from PLGA microspheres; type: physicochemical; conditions: FIG. 15
Procedure: 1. Prepare aqueous solution of NGF in DI water at 100 ug/ml concentration
2. Add 200 ul of this NGF solution to 4 ml dichloromethane/PLGA solution (using 200 mg of desired PLGA—for microspheres in FIG. 1 this was acid terminated 50:50 lactic:glycolic MW=7-17,000 Da viscosity=0.16-0.24 dl/g)
3. Sonicate for 10 s at 25% amplitude
4. Immediately add to 60 ml of 2% PVA solution and homogenize at 2300 rpm for 1 min
5. Add to 80 ml of 1% PVA solution and stir at 600 rpm for 3 h
6. Wash 4 times (each wash: centrifuge 5-10 min at 1000 rpm, decant, resuspend in DI water)
7. Freeze under liquid N2 and place on lyophilizer until all water is gone
1. Add microspheres (10 mg microspheres/100 ul gel) just prior to use and gently mix to suspend homogeneously.

[4] = system: New Zealand White rabbits; experiment: Post-mortem T1-weighted MRI 24 h after intravitreal injection of Gd-DOTA in thermoresponsive gel; type: in vivo, rabbit; conditions: in hydrogel
Procedure: Scans were performed within one hour of sacrifice. Soluble Gd-DOTA without MP encapsulation was largely cleared from the injection site at 24 h, with only 56% and 59% signal intensity (relative to nearby muscle tissue) in the vitreous and anterior chamber, respectively. […] The spatiotemporal distribution of Gd-DOTA into the rest of the eye will also provide valuable data for future controlled release formulations of other ocular therapeutics, such as those targeting the posterior segment of the eye.

[5] = Loading and release of other drugs from microparticles embedded in the gel; type: physicochemical
Text: The loading and release of other drugs (moxiflxacin and vancomycin) with the microparticles embedded within the gel has also been confirmed.

therapeutic levels (theoretical brimonidine absorbed) [1]: 0.53 to 3.7 µg/day
Compound: Brc1c(NC2=NCCN2)ccc2nccnc12 [Brimonidine, brimonidine]

Compound: Brimonidine tartrate [BT]
ocular half-life [2]: 28.2 min

Compound: NGF: nerve growth factor, released from NGF-loaded PLGA microspheres
duration of NGF release [3]: approximately one week

Compound: O=C([O-])CN(CCN(CC(=O)[O-])CC(=O)O)CCN(CC(=O)[O-])CC(=O)O.[Gd+3] [Gd-DTPA]
ocular half-life [2]: 28.08 min

signal intensity relative to muscle, anterior chamber [4]: 59%
signal intensity relative to muscle, vitreous [4]: 56%
Compound: O=C([O-])CN1CCN(CC(=O)[O-])CCN(CC(=O)O)CCN(CC(=O)[O-])CC1.[Gd+3] [Soluble Gd-DOTA, gadolinium-tetraazocyclododecanetetraacetic acid]

Compound: CN[C@H](CC(C)C)C(=O)N[C@H]1C(=O)N[C@@H](CC(N)=O)C(=O)N[C@H]2C(=O)N[C@H]3C(=O)N[C@H](C(=O)N[C@H](C(=O)O)c4cc(O)cc(O)c4-c4cc3ccc4O)[C@H](O)c3ccc(c(Cl)c3)Oc3cc2cc(c3O[C@@H]2O[C@H](CO)[C@@H](O)[C@H](O)[C@H]2O[C@H]2C[C@](C)(N)[C@H](O)[C@H](C)O2)Oc2ccc(cc2Cl)[C@H]1O [vancomycin]
loading and release with microparticles embedded within the gel [5]: confirmed
